The values below are quoted from earlier work in patent EP2637695B1, “OLMESARTAN FORMULATIONS” (Abdi Ibrahim Ilac Sanayi ve Ticaret Anonim Sirketi, priority 2010, dated 2012).

Like-named read-outs stand apart in the source and are kept apart here.

The conditions of series [1]: in humans.

For `CCCc1nc(C(C)(C)O)c(C(=O)OCc2oc(=O)oc2C)n1Cc1ccc(-c2ccccc2-c2nnn[nH]2)cc1` [Olmesartan medoxomil, (5-methyl-2-oxo-1,3-dioxolen-4-yl)rnethyl 4-(1-hydroxy-1-methylethyl)-2-propyl-1-{4-[2-(tetrazol-5-yl)phenyl]phenyl}methylimidazole-5-carboxylate], the solubility result runs as follows: (in 17 hydrochloric acid) “insoluble”; (in strong acid) “sparingly soluble”; (in strong base) “soluble”; (in water and in the pH range of 3 to 9) “practically insoluble”. The “bioavailability (BA)” value in series [1] is “approximately 26%”.
